In paper PMC9598926, “Design and Synthesis of (Z)-5-(Substituted benzylidene)-3-cyclohexyl-2-thioxothiazolidin-4-one Analogues as Anti-Tyrosinase and Antioxidant Compounds: In Vitro and In Silico Insights” (Antioxidants, 2022):

How the values were obtained:
[1] = Peroxynitrite (ONOO−) scavenging activity assay (DHR 123, SIN-1); conditions: SIN–1 10 µM; 5, 10, 20 µM
Experimental: 2.14. Peroxynitrite (ONOO^−) Scavenging Activity Assay
Peroxynitrite-scavenging activities were determined as described by Kooy et al. with modification. This method monitors the fluorescence of rhodamine 123, which is formed rapidly when non-fluorescent DHR 123 (dihydrorhodamine 123) (Molecular Probes, Eugene, OR, USA) in the presence of peroxynitrite. The rhodamine buffer solution (pH 7.4) included of 50 mM sodium phosphate, 90 mM sodium chloride, 5 mM potassium chloride, and 100 µM DTPA. The final concentration of DHR 123 was 5 µM. In this assay, the buffer solution was prepared prior to use and then stood on ice. Test compounds (10 µL, final concentrations: 5, 10, and 20 µM) dissolved in DMSO and added to 10 µL SIN-1 (10 µM) and 180 µL rhodamine buffer solution in the wells of a black 96-well plate. Fluorescence intensities of oxidized DHR 123 were measured using a fluorescence plate reader (Berthold Advances GmbH & Co., Bad Wildbad, Germany) with an excitation and emission wavelengths of 485 and 535 nm, respectively. Peroxynitrite scavenging activity was calculated after subtracting background fluorescence from final fluorescence intensity. Results are expressed as means ± standard deviation (SD), and L-penicillamine was used as a positive control.
Several RNS (reactive nitrogen species), including peroxynitrite (ONOO^–) and nitric oxide, are known to be involved in the induction of the melanogenesis. Therefore, we investigated the effects of analogs 1–8 on peroxynitrite scavenging activity using DHR123 (dihydrorhodamine) as a ROS indicator and SIN–1 as an RNS generator. Peroxynitrite generated by SIN–1 oxidizes DHR123 to rhodamine 123, a fluorescent compound. Thus, the effects of analogs on peroxynitrite scavenging ability were determined by measuring rhodamine 123 fluorescence.

B16F10 cells = experiment: Melanin content analysis in α–MSH plus IBMX stimulated B16F10 cells; format: cell-based, murine; conditions: α–MSH/IBMX stimulated (3.5-fold), 20 µM, 72 h
Experimental: 2.10. Melanin Content Analysis Melanin content assays were performed to determine the effects of analog 3 on cellular melanin formation, as previously described with minor modification. […] Briefly, cultured B16F10 cells were seeded in 6-well culture plates at 1 × 10^4 cells/well and incubated for 12 h under culture conditions to allow them to adhere to well bottoms. […] Cells were then washed twice with PBS and detached from wells by incubation with Trypsin/EDTA. After centrifugation, detached cell pellets were dissolved in 1N–NaOH solution (100 µL), incubated for 1 h at 60 °C, and mixed to solubilize melanin released by cells. The ability of analog 3 to inhibit melanin production was determined by measuring well optical densities (ODs) at 405 nm using a microplate reader (VersaMax®, Molecular Devices, Sunnyvale, CA, USA). Melanin contents were calculated by dividing the ODs of samples by the control OD. Experiments were conducted independently 3 times. […] Thus, B16F10 cells were treated with analog 3 (0, 5, 10, or 20 µM) for 1 h and then stimulated with α–MSH (1 µM) plus IBMX (200 µM) for 72 h. Melanin contents were assessed by measuring optical densities at 405 nm.

mushroom tyrosinase = experiment: Mushroom tyrosinase activity assay (L-tyrosine as substrate); format: biochemical; conditions: mushroom tyrosinase, means ± SEMs of triplicate determinations
Experimental: 2.2. […] In brief, 20 µL of an aqueous mushroom tyrosinase solution (1000 units/mL) and 170 µL of a substrate mixture containing 345 µM of L-tyrosine and 17.2 mM of sodium phosphate buffer (pH 6.5) were added to wells of a 96-well microplate. […] Amounts of dopachrome produced were assessed by measuring optical densities at 475 nm using a microplate reader (VersaMax®, Molecular Devices, Sunnyvale, CA, USA). […] Experiments were independently conducted three times.

[2] = ABTS cation radical scavenging activity assay; conditions: test sample 100 µM, 2 min in the dark
Experimental: 2.12. ABTS Cation Radical Scavenging Activity Assay
The free radical scavenging activities of analogs 1–8 and Trolox were determined using an ABTS radical cation decolorization assay (SEJIN CI Co., Seoul, Korea), as previously described with minor modification. Trolox was used as the positive control. ABTS radicals were produced by adding 10 mL of 7 mM ABTS in distilled water to 10 mL of 2.45 mM aqueous potassium persulfate solution. The mixture was kept in the dark for 12–16 h at RT until the reaction was complete and absorbance had stabilized. The prepared free radical solution was then diluted with methyl alcohol so that the optical density at 734 nm was 0.70 ± 0.02. Test samples (10 µL, final concentration at 100 µM) dissolved in EtOH/DMSO (9:1 v/v) were added to the diluted free radical solution (90 µL) in a 96-well plate. After standing at RT for 2 min in the dark, well absorbances were measured at 734 nm, and ABTS radical scavenging activities were calculated using the following formula:ABTS free radical scavenging activity (%) = (Ac − As) × 100/Ac(2) where Ac indicates the absorbance of the non-treated control, and As indicates the absorbances of test samples. Experiments were conducted independently 3 times.
The ABTS (2,2′-azino-bis(3-ethylbenzothiazoline-6-sulfonic acid)) cation radical scavenging assay is also commonly used to evaluate antioxidant effects. ABTS is converted to the ABTS radical cation by the transfer of one electron to potassium persulfate. Trolox was used as the positive control, and assays were performed at a test sample (analogs 1–8 and Trolox) concentration of 100 µM. The ABTS radical solution obtained by a reaction of ABTS with potassium persulfate was mixed with test samples and left in the dark for 2 min. ABTS radical scavenging abilities were evaluated by measuring absorbances at 734 nm. […] On the other hand, analog 1 with a 4-hydroxyphenyl group, and analogs 7 and 8 with bromo substituents on the β-phenyl ring weakly scavenged the ABTS radical (16.6–24.8% scavenging). […] Furthermore, the results for ABTS and DPPH radical scavenging activities were similar.

[3] = DPPH radical scavenging activity assay; conditions: test sample 500 µM, DPPH 0.18 mM, 30 min in the dark
Experimental: 2.11. DPPH Radical Scavenging Activity Assay
The DPPH radical scavenging activities of analogs 1–8 were investigated as previously described with minor modification. L-Ascorbic acid was used as a positive control. In brief, 20 µL of analogs (5 mM) in DMSO or 5 mM L-ascorbic acid in distilled water were mixed with 180 µL of 0.2 mM DPPH in methanol in a 96-well microplate. After the microplate had been stored in the dark for 30 min, optical densities (ODs) were measured at 517 nm using a microplate reader (VersaMax®, Molecular Devices, Sunnyvale, CA, USA). DPPH radical scavenging activities were determined using the following formula:DPPH radical scavenging activity (%) = 100 × (Ac − As)/Ac(1) where Ac indicates the optical density of the non-treated control and As indicates the optical density of test sample. Experiments were conducted independently 3 times.
There is a possibility that compounds with antioxidant properties inhibit the oxidations of tyrosinase substrates, such as L-tyrosine and L-dopa, without interacting with the tyrosinase. Melanin production requires many oxidative processes, including the conversion of L-tyrosine to dopaquinone via L-dopa. Therefore, compounds with antioxidant activity have the potential to inhibit melanogenesis. DPPH (2,2-diphenyl-1-picrylhydrazyl) contains a free radical, and DPPH assays are commonly used to assess antioxidant activity. In this experiment, L-ascorbic acid (an antioxidant) was used as a positive control. The assay was conducted at a test sample and L-ascorbic acid concentration of 500 µM and a DPPH concentration of 0.18 mM. After standing test sample/DPPH mixtures for 30 min in the dark, optical densities were measured to evaluate radical scavenging activities.

[4] = ROS scavenging activity assay (DCFH-DA/esterase, SIN-1); conditions: SIN–1 10 µM; 5, 10, 20 µM
Experimental: 2.13. ROS Scavenging Activity Assay
The ROS scavenging activities of analogs 1–8 and Troloxwere determined as previously described by Ali et al. and Lebel and Bondy. Briefly, 2.5 mM DCFH-DA (2’,7’-dichlorodihydrofluorescein diacetate) (Molecular Probes, Eugene, OR, USA) solution was mixed with esterase (1.5 units/mL) in 50 mM phosphate buffer (pH 7.4), held for 30 min at 37 °C, and keep on ice in the dark until required. Tested compounds (10 µL; final concentrations: 5, 10, and 20 µM) dissolved in DMSO and SIN-1 (3-morpholinosydnonimine) (10 µM) and 180 µL of phosphate buffer in the wells of a black 96-well plate for 30 min. The 50 µL of DCFH-DA-esterase mixture (20 µM) was added. Fluorescence intensities of oxidized DCFH (DCF or 2′,7′-dichlorofluorescein) were measured using a microplate reader (Berthold Advances GmbH & Co., Bad Wildbad, Germany) with excitation and emission wavelengths of 485 and 530 nm, respectively. Trolox was used as the reference control.
Since it has been reported that reactive oxygen species (ROS) are concerned in the regulation of melanogenesis, we examined the ROS scavenging activities of analogs 1–8 using DCFH-DA (2′,7′-dichlorodihydrofluorescein diacetate) and esterase. Trolox and SIN–1 (3-morpholinosydnonimine) were used as the positive control and a ROS generator, respectively. Hydrolysis of DCFA-DA by esterase generates DCFH (2′,7′-dichlorodihydrofluorescein), which reacts with ROS generated by SIN–1 to produce the fluorescent compound DCF (2′,7′-dichlorofluorescein). Thus, ROS scavenging activities of analogs were assessed by measuring DCF fluorescence. […] Test samples including Trolox were treated at three different concentrations (5, 10, or 20 µM).

| SMILES | IC50 (mushroom tyrosinase) | ABTS radical scavenging activity [2] | also measured |
| --- | --- | --- | --- |
| CC(C)(S)C(N)C(=O)O (stereo in doubt) [penicillamine, L-penicillamine, reference compound] |  |  | peroxynitrite scavenging [1]: significantly and concentration-dependently reduced |
| O=c1cc(CO)occ1O [kojic acid, reference compound] |  |  | melanin contents versus non-treated controls (B16F10 cells): 3.0 fold |
| O=C1/C(=C/c2ccc(O)cc2)SC(=S)N1C1CCCCC1 [Analog 1, (Z)-3-Cyclohexyl-5-(4-hydroxybenzylidene)-2-thioxothiazolidin-4-one] | 65.4 ± 7.82 µM | 16.6–24.8% | ROS scavenging [4]: significantly and concentration-dependently scavenged ROS |
| O=C1/C(=C/c2cc(Br)c(O)c(Br)c2)SC(=S)N1C1CCCCC1 [Analog 8, (Z)-3-Cyclohexyl-5-(3,5-dibromo-4-hydroxybenzylidene)-2-thioxothiazolidin-4-one] | > 200 µM | 16.6–24.8% |  |
| Cc1c(C)c2c(c(C)c1O)CCC(C)(C(=O)O)O2 (stereo not shown) [Trolox, reference compound] |  | 79.8% | ROS scavenging [4]: significantly and concentration-dependently scavenged ROS |
| COc1cc(/C=C2\SC(=S)N(C3CCCCC3)C2=O)cc(OC)c1O [Analog 6, (Z)-3-Cyclohexyl-5-(4-hydroxy-3,5-dimethoxybenzylidene)-2-thioxothiazolidin-4-one] | > 200 µM | 46.9% | peroxynitrite scavenging compared with penicillamine [1]: more potently than penicillamine |

More lines, main results first:

| IC50 (mushroom tyrosinase) | SMILES | ABTS radical scavenging activity [2] | also measured |
| --- | --- | --- | --- |
| 66.2 ± 9.44 µM | O=C1/C(=C/c2ccc(O)c(Br)c2)SC(=S)N1C1CCCCC1 [Analog 7, (Z)-5-(3-Bromo-4-hydroxybenzylidene)-3-cyclohexyl-2-thioxothiazolidin-4-one] | 16.6–24.8% |  |
| > 200 µM | COc1cc(/C=C2\SC(=S)N(C3CCCCC3)C2=O)ccc1O [Analog 4, (Z)-3-Cyclohexyl-5-(4-hydroxy-3-methoxybenzylidene)-2-thioxothiazolidin-4-one] | 57.7% | DPPH radical scavenging activity [3]: 72% |
| 55 ± 11.9 µM | COc1ccc(/C=C2\SC(=S)N(C3CCCCC3)C2=O)cc1O [Analog 5, (Z)-3-Cyclohexyl-5-(3-hydroxy-4-methoxybenzylidene)-2-thioxothiazolidin-4-one] | 43.5% |  |
